Laboratory results published in US20120129842A1, “BISTHIAZOLE INHIBITORS OF PRO-MATRIX METALLOPROTEINASE ACTIVATION” (priority 2010, published 2012).
Structures can show the parent of a compound that is named as a salt.

Columns and labels:
[1] = biological target: T1, proMMP9(67-444;ΔFnII) (SEQ ID NO:5) (Homo sapiens, UniProt P14780, DEL216-390); assay: ThermoFluor binding assay with proMMP9(67-444;ΔFnII); conditions: pH 7.0
T1 construct: start methionine (N); made in house; host or cells: E. coli BL21(DE3) RIL
T1 sequence (P14780 with tags, fused parts or gaps DEL216-390): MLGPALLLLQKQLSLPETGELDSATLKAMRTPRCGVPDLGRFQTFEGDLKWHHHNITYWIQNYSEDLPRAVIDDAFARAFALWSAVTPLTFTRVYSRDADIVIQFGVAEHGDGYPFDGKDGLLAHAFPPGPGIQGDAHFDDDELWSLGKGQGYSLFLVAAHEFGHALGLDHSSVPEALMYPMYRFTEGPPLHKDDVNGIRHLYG
Experimental: (§1) The ThermoFluor® (TF) assay is a 384-well plate-based binding assay that measures thermal stability of proteins (Biomol Screen 2001, 6, 429-40; Biochemistry 2005, 44, 5258-66). The experiments were carried out using instruments available from Johnson & Johnson Pharmaceutical Research & Development, LLC. TF dye used in all experiments was […] (1,8-ANS) (Invitrogen: A-47).
(§2) Compounds were arranged in a pre-dispensed plate (Greiner Bio-one: 781280), wherein compounds were serially diluted in 100% DMSO across 11 columns within a series. Columns 12 and 24 were used as DMSO reference and contained no compound. For multiple compound concentration-response experiments, the compound aliquots ([…]) were robotically predispensed directly into black 384-well polypropylene PCR microplates (Abgene: TF-0384/k) using a Cartesian Hummingbird liquid handler (DigiLab, Holliston, Mass.). Following compound dispense, protein and dye solutions were added to achieve the final assay volume of 3 μL. The assay solutions were overlayed with 1 μL of silicone oil (Fluka, type DC 200: 85411) to prevent evaporation.
(§3) Assay plates were robotically loaded onto a thermostatically controlled PCR-type thermal block and then heated from 40 to 90° C. at a ramp-rate of 1° C./min for all experiments. Fluorescence was measured by continuous illumination with UV light (Hamamatsu LC6) supplied via fiber optics and filtered through a band-pass filter (380-400 nm; >6 OD cutoff). Fluorescence emission of the entire 384-well plate was detected by measuring light intensity using a CCD camera (Sensys, Roper Scientific) filtered to detect 500±25 nm, resulting in simultaneous and independent readings of all 384 wells. A single image with 20-sec exposure time was collected at each temperature, and the sum of the pixel intensity in a given area of the assay plate was recorded vs temperature and fit to standard equations to yield the Tm (J Biomol Screen 2001, 6, 429-40).
(§4) Thermodynamic parameters necessary for fitting compound binding for each proMMP were estimated by differential scanning calorimetry (DSC) and from ThermoFluor® data. The heat capacity of unfolding for each protein was estimated from the molecular weight and from ThermoFluor® dosing data.
The protein sample preparations had to include a desalting buffer exchange step via a PD-10 gravity column (GE Healthcare). The desalting buffer exchange was performed prior to diluting the protein to the final assay concentration of 3.5 μM proMMP9(67-444;ΔFnII) (SEQ ID NO:5). The concentration of proMMP9(67-444;ΔFnII) (SEQ ID NO:5) was determined spectrophotometrically based on a calculated extinction coefficient of ε280=33900 M^−1cm^−1, a calculated molecular weight of 22.6 kDa, and calculated pI of 5.20. ThermoFluor® reference conditions were defined as follows: 80 μg/mL (3.5 μM) proMMP9(67-444;ΔFnII) (SEQ ID NO:5), 50 μM 1,8-ANS, pH 7.0 Buffer (50 mM HEPES pH 7.0, 100 mM NaCl, 0.001% Tween-20, 2.5 mM MgCl2, 300 μM CaCl2). The thermodynamic parameters for proMMP9(67-444;ΔFnII) (SEQ ID NO:5) are as follows: Tm (° C.)=63 (+/−0.1), ΔUH(Tm) (cal mol^−1)=105000(+/−5000), ΔUS(Tm) (cal mol^−1 K^−1)=[…], ΔUCp (cal mol^−1 K^−1)=2000.

[2] = biological target: T2, full-length proMMP9(1-707) (SEQ ID NO:1) (Homo sapiens, UniProt P14780, R574P); assay: proMMP9/MMP3 P126 Activation Assay; type: biochemical; conditions: 20 nM proMMP9, 20 nM MMP3, 80 min 37° C.
T2 construct: made in house; host or cells: HEK293 (proMMP9, secreted); E. coli (MMP3)
Experimental: The reaction volume was 50 μL. […] Reactivity of residual MMP3 towards P-126 substrate was minimal under these conditions.

[3] = biological target: T3, proMMP9(20-445;ΔFnII) (SEQ ID NO:6) (Homo sapiens, UniProt P14780, DEL216-390); assay: ThermoFluor binding assay with proMMP9(20-445;ΔFnII); conditions: pH 7.0
T3 construct: start methionine (N); made in house; host or cells: E. coli BL21(DE3) RIL
T3 sequence (P14780 with tags, fused parts or gaps DEL216-390): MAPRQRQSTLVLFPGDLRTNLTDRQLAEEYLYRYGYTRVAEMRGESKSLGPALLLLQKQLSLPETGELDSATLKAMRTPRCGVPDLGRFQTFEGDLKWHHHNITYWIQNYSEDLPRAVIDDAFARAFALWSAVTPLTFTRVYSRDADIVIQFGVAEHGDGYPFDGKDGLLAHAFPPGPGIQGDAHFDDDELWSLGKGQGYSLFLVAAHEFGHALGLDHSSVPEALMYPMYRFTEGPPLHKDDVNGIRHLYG
Experimental: as §1, §2, §3, §4
The protein sample preparations included a desalting buffer exchange step via a PD-10 gravity column (GE Healthcare). The desalting buffer exchange was performed prior to diluting the protein to the final assay concentration of 2.8 μM proMMP9(20-445;ΔFnII) (SEQ ID NO:6). The concentration of proMMP9(20-445;ΔFnII) (SEQ ID NO:6) was determined spectrophotometrically based on a calculated extinction coefficient of ε280=39880 M^−cm^−1, a calculated molecular weight of 28.2 kDa, and calculated pI of 5.5. ThermoFluor® reference conditions were define as follows: 80 μg/mL (2.8 μM) proMMP9(20-445;ΔFnII) (SEQ ID NO:6), 50 μM 1,8-ANS, pH 7.0 Buffer (50 mM HEPES pH 7.0, 100 mM NaCl, 0.001% Tween-20, 2.5 mM MgCl2, 300 μM CaCl2). The thermodynamic parameters for proMMP9(20-445;ΔFnII) (SEQ ID NO:6) are as follows: Tm (° C.)=72 (+/−0.1), ΔUH(Tm) (cal mol^−1)=160000(+/−5000), ΔUS(Tm) (cal mol^−1 K^−1)=434, ΔUCp (cal mol^−1 K^−)=2400.

[4] = biological target: proMMP13(1-268) (SEQ ID NO:7) (Homo sapiens, UniProt P45452); assay: ThermoFluor binding assay with proMMP13(1-268); design: 6xHis (C); made in house; conditions: pH 7.0
Experimental: as §1, §2, §3, §4
The proMMP13(1-268) (SEQ ID NO:7) protein sample preparations included a desalting buffer exchange step via a PD-10 gravity column (GE Healthcare). The desalting buffer exchange was performed prior to diluting the protein to the final assay concentration of 3.5 μM. The concentration of proMMP13(1-268) (SEQ ID NO:7) was estimated spectrophotometrically based on a calculated extinction coefficient of ε280=37000 M^−1cm^−1, a calculated molecular weight of 30.8 kDa, and calculated pI of 5.33. ThermoFluor® reference conditions were defined as follows: 100 μg/mL proMMP13(1-268) (SEQ ID NO:7), 25 μM 1,8-ANS, pH 7.0 Buffer (50 mM HEPES pH 7.0, 100 mM NaCl, 0.001% Tween-20, 2.5 mM MgCl2, 300 μM CaCl2). The thermodynamic parameters for proMMP13(1-268) (SEQ ID NO:7) are as follows: Tm (° C.)=67 (+/−0.1), ΔUH(Tm) (cal mol^−1)=107000(+/−5000), ΔUS(Tm) (cal mol^−1 K^−1)=318, ΔUCp (cal mol^−1 K^−1)=2600.

T2 sequence (P14780 20-707 R574P): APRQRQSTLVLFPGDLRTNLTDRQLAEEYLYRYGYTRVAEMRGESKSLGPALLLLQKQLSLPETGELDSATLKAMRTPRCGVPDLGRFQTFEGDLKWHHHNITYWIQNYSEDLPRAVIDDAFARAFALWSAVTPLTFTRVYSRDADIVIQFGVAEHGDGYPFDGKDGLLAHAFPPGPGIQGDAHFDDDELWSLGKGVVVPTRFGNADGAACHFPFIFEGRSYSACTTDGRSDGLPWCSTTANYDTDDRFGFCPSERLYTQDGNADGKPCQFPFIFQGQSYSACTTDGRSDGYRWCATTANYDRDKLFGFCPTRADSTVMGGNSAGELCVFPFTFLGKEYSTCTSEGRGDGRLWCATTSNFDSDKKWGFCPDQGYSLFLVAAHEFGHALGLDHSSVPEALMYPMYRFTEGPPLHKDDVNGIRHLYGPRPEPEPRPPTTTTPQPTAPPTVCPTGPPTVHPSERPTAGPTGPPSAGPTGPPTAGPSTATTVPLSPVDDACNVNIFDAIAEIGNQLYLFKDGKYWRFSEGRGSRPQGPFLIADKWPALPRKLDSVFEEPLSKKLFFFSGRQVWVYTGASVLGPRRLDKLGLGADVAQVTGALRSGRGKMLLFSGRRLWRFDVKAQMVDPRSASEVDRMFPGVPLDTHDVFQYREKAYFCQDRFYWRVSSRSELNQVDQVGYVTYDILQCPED

| SMILES | Kd [1] [µM] | IC50 [2] [µM] | Kd [3] [µM] | Kd [4] [µM] |
| --- | --- | --- | --- | --- |
| Cc1nc(C)c(-c2csc(Nc3cc(C(N)=O)ccc3OC(C)C)n2)s1 [Example 1, 3-(2′,4′-Dimethyl-[4,5′]bithiazolyl-2-ylamino)-4-isopropoxy-benzamide.HBr] | 0.17 | 0.16 | 0.026 | 0.14 |
| Cc1nc(N)sc1-c1csc(Nc2cc(C(N)=O)ccc2OC(C)C)n1 [Example 2, 3-(2′-Amino-4′-methyl-[4,5′]bithiazolyl-2-ylamino)-4-isopropoxy-benzamide.HBr] | 0.16 | 0.16 | 0.021 | 0.081 |
| CC(=O)Nc1nc(C)c(-c2csc(Nc3cc(C(N)=O)ccc3OC(C)C)n2)s1 [Example 3, 3-(2′-Acetylamino-4′-methyl-[4,5′]bithiazolyl-2-ylamino)-4-isopropoxy-benzamide.HBr] | 0.3 | 0.13 | 0.41 | 0.3 |
| Cc1nc(C)c(-c2nc(Nc3cc(C(N)=O)ccc3OC(C)C)sc2Br)s1 [Example 4, 3-(5-Bromo-2′,4′-dimethyl-[4,5′]bithiazolyl-2-ylamino)-4-isopropoxy-benzamide] | 3.1 | 9 | 1.2 | 3.2 |
| COc1ccc(C(N)=O)cc1Nc1nc(-c2sc(N)nc2C)cs1 [Example 5, 3-(2′-Amino-4′-methyl-[4,5′]bithiazolyl-2-ylamino)-4-methoxy-benzamide.HBr] | 0.56 | 0.85 | 0.27 | 4.9 |
| CC(=O)Nc1nc(C)c(-c2csc(Nc3cccc4c3OCCO4)n2)s1 [Example 19, N-[2-(2,3-Dihydro-benzo[1,4]dioxin-5-ylamino)-4′-methyl-[4,5′]bithiazolyl-2′-yl]-acetamide] | 11 | – | 17 | 62 |
| CCN(CC)S(=O)(=O)c1ccc(OC)c(Nc2nc(-c3sc(N)nc3C)cs2)c1 [Example 21, 3-(2′-Amino-4′-methyl-[4,5′]bithiazolyl-2-ylamino)-N,N-diethyl-4-methoxy-benzenesulfonamide.HBr] | 2.9 | – | 9.6 | 1.7 |
| COc1ccc(-c2ccccc2)cc1Nc1nc(-c2sc(N)nc2C)cs1 [Example 23, N^2-(4-Methoxy-biphenyl-3-yl)-4′-methyl-[4,5′]bithiazolyl-2,2′-diamine.HBr] | 15 | – | 12 | 0.98 |
| COc1ccc(C)cc1Nc1nc(-c2sc(N)nc2C)cs1 [Example 24, N^2-(2-Methoxy-5-methyl-phenyl)-4′-methyl-[4,5′]bithiazolyl-2,2′-diamine.HBr] | 2.3 | – | 8.6 | 25 |
| COc1ccc(C(=O)NCCN2CCCCC2)cc1Nc1nc(-c2sc(NC(C)=O)nc2C)cs1 [Example 58, 3-(2′-Acetylamino-4′-methyl-[4,5′]bithiazolyl-2-ylamino)-4-methoxy-N-(2-piperidin-1-yl-ethyl)-benzamide.TFA] | 6.5 | – | 19 | > 95 |
| CNC(=O)c1ccc(OC)c(Nc2nc(-c3sc(NC(C)=O)nc3C)cs2)c1 [Example 65, 3-(2′-Acetylamino-4′-methyl-[4,5′]bithiazolyl-2-ylamino)-4-methoxy-N-methyl-benzamide.TFA] | 2.8 | – | 3 | 7.8 |
| CCOc1ccc(-c2ncco2)cc1Nc1nc(-c2sc(NC(C)=O)nc2C)cs1 [Example 78, N-[2-(2-Ethoxy-5-oxazol-2-yl-phenylamino)-4′-methyl-[4,5′]bithiazolyl-2′-yl]-acetamide.TFA] | 0.48 | – | 15 | 2.9 |
| CCOC(=O)c1ccc(OCC)c(Nc2nc(-c3sc(C)nc3C)cs2)c1 [Example 82, 3-(2′,4′-Dimethyl-[4,5′]bithiazolyl-2-ylamino)-4-ethoxy-benzoic acid ethyl ester.HBr] | 3.5 | – | 15 | 13 |
| COc1ccc(C(N)=O)cc1Nc1nc(-c2sc(N3CCN(C)CC3)nc2C)cs1 [Example 93, 4-Methoxy-3-[4′-methyl-2′-(4-methyl-piperazin-1-yl)-[4,5′]bithiazolyl-2-ylamino]-benzamide.TFA] | 2.5 | – | 0.74 | 16 |
| Cc1nc(C(=O)N2CCC(O)CC2)sc1-c1csc(Nc2cc(C(N)=O)ccc2OC(C)C)n1 [Example 105, 3-[2′-(4-Hydroxy-piperidine-1-carbonyl)-4′-methyl-[4,5′]bithiazolyl-2-ylamino]-4-isopropoxy-benzamide.TFA] | 2.9 | – | 0.24 | 1.3 |
| COc1ccncc1Nc1nc(-c2sc(N3CCN(C)CC3)nc2C)cs1 [Example 155, N-(4-Methoxypyridin-3-yl)-4′-methyl-2′-(4-methylpiperazin-1-yl)-[4,5′-bithiazol]-2-amine.TFA] | 0.34 | 0.29 | 1.9 | – |
